Source: article PMC12880750, “Mechanistic insights and in vivo HIV suppression by the BRD4-targeting small molecule ZL0580” (PLOS Pathogens, 2026)
Read-outs that look alike come from different tables or passages of the source.

Columns and labels:
[1] = test system: CDK9 binding to HIV 5′-LTR in J-Lat cells (10.6); test: ChIP-qPCR of CDK9 binding to HIV 5'-LTR; assay type: cell-based, human; conditions: PMA (50ng/ml) + compound 5 μM, 24 hours
[2] = test system: WT J-Lat cells (Clone […]); test: RT-qPCR validation of differentially expressed genes, WT J-Lat cells; assay type: cell-based, human; conditions: 5 μM, 24 h, normalized to GAPDH
Description: To validate the RNA-Seq results, RT-qPCR analysis was performed on a subset of differentially expressed genes (DEGs) (Fig 3E). Eight representative DEGs were selected based on statistical significance (adjusted p values) and their involvement in key pathways identified by GSEA, including lipid metabolism/cholesterol biosynthesis (HMGCS1, SQLE, DHCR7) and cytokine signaling (ITK and DUSP8). Relative gene expression levels were normalized to the housekeeping gene GAPDH. […] As an additional control, RT-qPCR was also performed on RNA isolated from BRD4-knockout (KO) J-Lat cells that received the same treatments. The generation and characterization of BRD4-KO J-Lat cells were described previously.
RT-qPCR was performed as previously reported.

[3] = In vivo pharmacokinetics in ICR mice; parameters: species or system male ICR mice; conditions: mouse, plasma
Description: Animal experiments assessing PK and in vivo toxicity profile of ZL0580 was performed by the contracting research organization (CRO) Sundia. The studies were performed according to the NIH Guide for Care and Use of Experimental Animals. The PK studies of ZL0580 was performed using male ICR mice (18–22 g). The mice were randomly divided into two groups (n = 3). The mice of the group 1 were intravenously administrated with ZL0580 [10 mg/kg, in 10% DMSO + 10% Solutol HS 15 + 80% HP-β-CD (20%, w/v)] and the mice of the group 2 were orally administrated with ZL0580 [20 mg/kg, in 10% DMSO + 90% HP-β-CD (20%, w/v)]. Blood samples of group 1 and group 2 mice were collected at the indicated time points post treatment and put into heparinized centrifugation tubes, which were centrifuged under the condition of 6800 rpm and 4 °C for 6 min. The supernatant was collected and stored at -20 °C for further LC-MS analysis. Before the plasma concentrations (AUC) were determined, standard curves were generated with various concentrations of ZL0580 and the internal standard (IS). All PK parameters were calculated with WinNonlin 6.4 software.

J-Lat cells (clone 10.6) = test: RNA-Seq differential gene expression; assay type: cell-based, human; conditions: 5 μM, 24 hours, vs. NC; p < 0.001 and log2 fold change > 1
BRD4 BD1 = test: In vitro binding affinity (TR-FRET), BRD4 BD1; parameters: species or system human; conditions: from IC50 BD1 and BD2
[4] = In vivo toxicity study in ICR mice; parameters: key to Detail clinical observation during administration period (symptom number): 01. normal; 02. Cavity to observe; 03. Discolored skin; 04. Salivation; 05. Emesis; 06. Lacrimation; 07. ptosis; 08.Decreased respira tion; 09. Increased respiration; 10. anhelation; 11. Ataxia; 12. Loose stools; 13. Limb’s tremor; 14. Ey e; 15.Weakness; 16. Hyperreactivity; 17. Emaciation; 18. Whole body touch; 19. Cough; 20. At the injection site; 21. Alopecia genitalized; 22. convulsion; 23. Corna; 24. Death; key to Necropsy macroscopic (all organs examined): –: normal-; slight +; midrange ++; severe ++++; conditions: for Detail clinical observation during administration period (symptom number): all 10 animals (5 F, 5 M), Day 1 (twice) to Day 7; for Necropsy macroscopic (all organs examined): all organs listed
Description: The acute toxicity studies were performed in both male and female ICR mice. The mice were divided into 3 groups (each group, n = 10, 5 males and 5 females). Group 1 was the vehicle group without ZL0580 treatment (po, 20% DMA + 20% Solutol HS15 + 60% HP-β-CD (20%, w/v)). Group 2, and group 3 mice were orally administrated with ZL0580 at doses of 100 mg/kg and 300 mg/kg [in 20% Dimethyl Acetamide (DMA) + 20% Solutol HS15 + 60% HP-β-CD (20%, w/v)], respectively. The body weights of all mice were weighed on day 1, 3, and 7 after treatments. The mean body weights of all mice in each group were calculated, and the standard curves were generated with the mean body weights of each group mice at different recorded time points. The food consumption masses of each group mice were recorded on day 1, 2, 3, 4, and 5 after treatments. The mean food consumption of all mice in each group was calculated, and the standard curves were generated with the mean food consumption of each group at different recorded time points.

[5] = ICR mice, 100 mg/kg or 300 mg/kg daily for 7 days
[6] = ICR mice, 100 mg/kg or 300 mg/kg, end of the study

## O=C(Nc1ccc(C(F)(F)F)cc1)Nc1ccc(S(=O)(=O)N2CCC[C@H]2C(=O)Nc2ccccc2)cc1 [ZL0580]
[1]
  Reduction of CDK9 binding relative to PMA alone: ~ 3.8 fold
[2]
  Expression of HMGCS1, SQLE, DHCR7, ASS1, ITK, DUSP8 relative to NC: upregulated
  Expression of KLF10 and WDR52 relative to NC: downregulated
[3]; male, IV, 10 mg/kg, ICR mice
  AUC(0-t): 14400 ± 3470 ng·h/mL
[3]; male, IV, 10 mg/kg, ICR mice, read-out: AUC0-∞
  AUC(0-inf): 14400 ± 3470 ng·h/mL
[3]; IV (10 mg/kg), male ICR mice
  Cmax: 19300 ± 2790 ng/mL
  MRT inf: 0.73 ± 0.12 h
  clearance: 12 mL/min/kg
  half-life: 54.6 ± 3.6 min
[3]; IV (10 mg/kg), male ICR mice, read-out: Vz
  Vd: 0.95 ± 0.28 L/kg
[3]; PO (20 mg/kg), male ICR mice
  AUC(0-t): 5590 ± 1880 ng·h/mL
  Cmax: 1470 ± 186 ng/mL
  MRT inf: 3.18 ± 1.39 h
  half-life: 152 ± 134 min
[3]; PO (20 mg/kg), male ICR mice, read-out: AUC0-inf
  AUC(0-inf): 5800 ± 2120 ng·h/mL
J-Lat cells (clone 10.6)
  Downregulated genes: 104 genes
  Significantly regulated genes (total): 166 genes
  Upregulated genes: 62 genes
BRD4 BD1
  Selectivity (BRD4 BD1 vs BD2): about 7 fold
[4]; Group 2, 100 mg/kg PO
  Detail clinical observation during administration period (symptom number): 01
[4]; Group 2, 100 mg/kg PO, all 10 animals
  Necropsy macroscopic (all organs examined): –
[4]; Group 3, 300 mg/kg PO
  Detail clinical observation during administration period (symptom number): 01
[4]; Group 3, 300 mg/kg PO, females 801-805 shown
  Necropsy macroscopic (all organs examined): –
[4]; ICR mice, 100 mg/kg or 300 mg/kg PO daily for 7 days
  Tolerability in vivo: well tolerated
[4]; [5]
  Changes in body weights: little to no changes
  Changes in food consumption: little to no changes
[4]; [6]
  Necropsy and gross pathological examinations: no abnormalities
  Serum biochemistry: no abnormalities
[4]; ICR mice, 100 mg/kg or 300 mg/kg, throughout the study
  Clinical signs of toxicity: No clinical signs of toxicity were observed
